The text below walks through data of patent publication US8618289B2 (Ambit Biosciences Corporation, priority 2008, dated 2013).

Broadly, the Kd is the free concentration of one partner at which half of the binding sites on the other are occupied at equilibrium, for simple one-to-one binding. As usually defined, the IC50 is the concentration that gives 50% inhibition. A word on the EC50: it is the concentration giving half of the maximal effect.

The target of assay [1] is RAF kinases (Homo sapiens, UniProt P15056). Particulars: read-out: BRAF WT Kd; BRAF WT.
Assay [2] concerns the target RAF kinases (Homo sapiens, UniProt P04049). Particulars: read-out: RAF1 Kd; RAF1.
In assay [3] the target is RAF kinases (Homo sapiens, UniProt P15056, V600E). Particulars: read-out: BRAF V600E Kd; BRAF V600E.
Assay [4] concerns MEK1 phosphorylation in the A375 human melanoma cell line. In words: cells. Particulars: A-375, read-out: pMEK IC50.
Another assay deals with A375 cells. In words: cells. Particulars: Homo sapiens, A-375, read-out: A375 Viability EC50.

The structures appear in SMILES notation. Structures can show the parent of a compound that is named as a salt.

Chain of RAF kinases (Homo sapiens, UniProt P04049) (P04049 whole entry): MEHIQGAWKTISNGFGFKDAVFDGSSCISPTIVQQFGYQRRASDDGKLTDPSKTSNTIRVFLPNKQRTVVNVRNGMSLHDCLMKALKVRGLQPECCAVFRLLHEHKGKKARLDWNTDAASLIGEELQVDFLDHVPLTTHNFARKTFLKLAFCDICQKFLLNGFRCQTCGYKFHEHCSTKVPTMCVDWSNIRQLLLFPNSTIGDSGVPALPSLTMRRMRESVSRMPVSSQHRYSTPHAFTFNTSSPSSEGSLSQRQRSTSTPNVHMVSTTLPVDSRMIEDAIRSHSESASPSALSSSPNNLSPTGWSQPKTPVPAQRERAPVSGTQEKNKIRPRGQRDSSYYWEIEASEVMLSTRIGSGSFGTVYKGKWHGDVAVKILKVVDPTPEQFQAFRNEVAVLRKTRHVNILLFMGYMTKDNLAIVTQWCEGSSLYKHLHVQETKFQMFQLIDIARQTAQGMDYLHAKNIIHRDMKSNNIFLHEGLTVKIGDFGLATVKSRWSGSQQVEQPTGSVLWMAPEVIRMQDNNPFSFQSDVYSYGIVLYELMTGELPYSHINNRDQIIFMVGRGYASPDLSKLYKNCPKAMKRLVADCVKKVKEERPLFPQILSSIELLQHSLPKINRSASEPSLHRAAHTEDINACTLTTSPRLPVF
Chain of RAF kinases (Homo sapiens, UniProt P15056, V600E) (P15056 whole entry V600E): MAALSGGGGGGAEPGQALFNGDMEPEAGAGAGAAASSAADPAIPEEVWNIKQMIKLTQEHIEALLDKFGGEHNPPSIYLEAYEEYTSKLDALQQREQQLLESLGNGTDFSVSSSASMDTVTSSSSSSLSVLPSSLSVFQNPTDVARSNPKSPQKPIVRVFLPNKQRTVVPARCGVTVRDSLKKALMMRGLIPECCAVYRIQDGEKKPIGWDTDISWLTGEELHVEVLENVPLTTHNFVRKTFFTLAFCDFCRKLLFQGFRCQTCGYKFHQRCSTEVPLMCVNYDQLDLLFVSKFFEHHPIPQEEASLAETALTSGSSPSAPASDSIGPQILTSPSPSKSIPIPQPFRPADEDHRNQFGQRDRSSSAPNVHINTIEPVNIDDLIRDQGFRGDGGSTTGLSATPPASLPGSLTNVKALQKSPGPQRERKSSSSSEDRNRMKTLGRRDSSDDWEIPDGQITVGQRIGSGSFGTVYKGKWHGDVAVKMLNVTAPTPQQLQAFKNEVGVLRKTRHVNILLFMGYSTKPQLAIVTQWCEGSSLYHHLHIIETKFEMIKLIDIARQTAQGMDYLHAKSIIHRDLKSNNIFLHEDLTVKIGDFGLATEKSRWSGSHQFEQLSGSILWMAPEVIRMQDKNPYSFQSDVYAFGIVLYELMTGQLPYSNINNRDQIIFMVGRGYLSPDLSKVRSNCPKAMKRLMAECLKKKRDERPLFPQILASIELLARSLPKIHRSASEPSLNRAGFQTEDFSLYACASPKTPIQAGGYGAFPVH
Chain of RAF kinases (Homo sapiens, UniProt P15056) (P15056 whole entry): as the sequence (P15056 whole entry V600E) above, with E600V counted along it

Consider `COc1cc2ncnc(Oc3cc(NC(=O)Nc4cc(C(C)(C)F)no4)ccc3F)c2cc1OC` [Ex293, 1-(3-(6,7-dimethoxyquinazolin-4-yloxy)-4-fluorophenyl)-3-(3-(2-fluoropropan-2-yl)isoxazol-5-yl)urea], for which the Kd on RAF kinases [1], on RAF kinases [2] and at RAF kinases [3] was under 250 nM each time. Also, the IC50 in assay [4] is under 250 nM. For the same compound, in the assay on A375 cells, the EC50 fell in the range of 250 to 500 nM.

As to `COCCOc1cc2ncnc(Oc3cccc(NC(=O)Nc4cc(C(C)C)on4)c3)c2cc1OC` [Ex 206, 1-(5-isopropylisoxazol-3-yl)-3-(3-(6-methoxy-7-(2-methoxyethoxy)quinazolin-4-yloxy)phenyl)urea], the Kd at RAF kinases [1], on RAF kinases [2] and on RAF kinases [3] was under 250 nM throughout. Further, the IC50 in assay [4] lay in the range of 500 to 1000 nM. Further, the EC50 with A375 cells is over 1000 nM.

On to `COCCOc1cc2ncnc(Oc3cccc(NC(=O)Nc4cc(C(F)(F)F)n(C)n4)c3)c2cc1OC` [Ex 208, 1-{3-[6-methoxy-7-(2-methoxyethoxy)quinazolin-4-yloxy]phenyl}-3-[1-methyl-5-(trifluoromethyl)-1H-pyrazol-3-yl]urea], for which the Kd at RAF kinases [1], at RAF kinases [2] and at RAF kinases [3] was under 250 nM each time. Besides, the IC50 in assay [4] was over 1000 nM. Besides, in the assay on A375 cells, the EC50 is over 1000 nM.

For `COCCOc1cc2ncnc(Oc3cccc(NC(=O)Nc4cc(C5CC5)no4)c3)c2cc1OC` [Ex 214, 1-(3-cyclopropylisoxazol-5-yl)-3-(3-(6-methoxy-7-(2-methoxyethoxy)quinazolin-4-yloxy)phenyl)urea], the Kd at RAF kinases [1], on RAF kinases [2] and at RAF kinases [3] was under 250 nM in each case. The IC50 in assay [4] is over 1000 nM. The EC50 with A375 cells was over 1000 nM.

For `COCCOc1cc2ncnc(Oc3cccc(NC(=O)Nc4cc(C5CCCC5)on4)c3)c2cc1OC` [Ex 219, 1-(5-cyclopentylisoxazol-3-yl)-3-(3-(6-methoxy-7-(2-methoxyethoxy)quinazolin-4-yloxy)phenyl)urea], the Kd at RAF kinases [1], at RAF kinases [2] and on RAF kinases [3] was under 250 nM each time. The IC50 in assay [4] was under 250 nM. The EC50 in the assay on A375 cells lay in the range of 250 to 500 nM.

Turning to `COCCOc1cc2ncnc(Oc3cccc(NC(=O)Nc4cc(C(F)(F)F)nn4C)c3)c2cc1OC` [Ex 220, 1-{3-[6-methoxy-7-(2-methoxyethoxy)quinazolin-4-yloxy]phenyl}-3-[1-methyl-3-(trifluoromethyl)-1H-pyrazol-5-yl]urea], the Kd on RAF kinases [1], at RAF kinases [2] and at RAF kinases [3] was under 250 nM throughout. The IC50 in assay [4] was in the range of 500 to 1000 nM. For the same compound, the EC50 in the assay with A375 cells was over 1000 nM.

On to `CCOC(=O)Cn1nc(C(C)(C)C)cc1NC(=O)Nc1cccc(Oc2ncnc3cc(OCCOC)c(OC)cc23)c1` [Ex 224, ethyl 2-[3-tert-butyl-5-(3-{3-[6-methoxy-7-(2-methoxyethoxy)quinazolin-4-yloxy]phenyl}ureido)-1H-pyrazol-1-yl]acetate hydrochloride], for which the Kd at RAF kinases [1], on RAF kinases [2] and at RAF kinases [3] was over 1000 nM in each case. The IC50 in assay [4] was over 1000 nM. For the same compound, the EC50 in the assay with A375 cells is over 1000 nM.

`COCCOc1cc2ncnc(Sc3cccc(NC(=O)Nc4cc(C(C)C)on4)c3)c2cc1OC` [Ex 232, 1-(5-isopropylisoxazol-3-yl)-3-(3-(6-methoxy-7-(2-methoxyethoxy)quinazolin-4-ylthio)phenyl)urea]: the Kd on RAF kinases [1], at RAF kinases [2] and on RAF kinases [3] was under 250 nM each time. Also, in assay [4], the IC50 was in the range of 250 to 500 nM. Also, the EC50 in the assay with A375 cells was over 1000 nM.

Regarding `COCCOc1cc2ncnc(Sc3cccc(NC(=O)Nc4cc(C(C)(CF)CF)nn4-c4ccccc4)c3)c2cc1OC` [Ex 238, 1-[3-(1,3-difluoro-2-methylpropan-2-yl)-1-phenyl-1H-pyrazol-5-yl]-3-{3-[6-methoxy-7-(2-methoxyethoxy)quinazolin-4-ylthio]phenyl}urea], the Kd on RAF kinases [1], at RAF kinases [2] and on RAF kinases [3] was over 1000 nM throughout. For the same compound, in assay [4], the IC50 is under 250 nM. The EC50 in the assay on A375 cells was over 1000 nM.

Turning to `COCCOc1cc2ncnc(Sc3cccc(NC(=O)Nc4cc(C(F)(F)F)nn4C)c3)c2cc1OC` [Ex 239, 1-{3-[6-methoxy-7-(2-methoxyethoxy)quinazolin-4-ylthio]phenyl}-3-[1-methyl-3-(trifluoromethyl)-1H-pyrazol-5-yl]urea], the Kd on RAF kinases [1], on RAF kinases [2] and on RAF kinases [3] was under 250 nM in each case. For the same compound, the IC50 in assay [4] was in the range of 250 to 500 nM. For the same compound, in the assay with A375 cells, the EC50 was over 1000 nM.

Turning to `COCCOc1cc2ncnc(Sc3cccc(NC(=O)Nc4cc(C(F)(F)F)nn4-c4ccc(C)cc4)c3)c2cc1OC` [Ex 243, 1-{3-[6-methoxy-7-(2-methoxyethoxy)quinazolin-4-ylthio]phenyl}-3-[1-p-tolyl-3-(trifluoromethyl)-1H-pyrazol-5-yl]urea], the Kd at RAF kinases [1], on RAF kinases [2] and on RAF kinases [3] was over 1000 nM throughout. The IC50 in assay [4] lay in the range of 250 to 500 nM. Also, in the assay on A375 cells, the EC50 lay in the range of 250 to 500 nM.

`COCCOc1cc2ncnc(Sc3cccc(NC(=O)Nc4cc(C(F)(F)F)n(-c5ccccc5)n4)c3)c2cc1OC` [Ex 244, 1-{3-[6-methoxy-7-(2-methoxyethoxy)quinazolin-4-ylthio]phenyl}-3-[1-phenyl-5-(trifluoromethyl)-1H-pyrazol-3-yl]urea]: the equilibrium dissociation constant (Kd) on RAF kinases [1], on RAF kinases [2] and at RAF kinases [3] was over 1000 nM throughout. Also, in assay [4], the 50% inhibitory concentration (IC50) is over 1000 nM. Also, the EC50 in the assay with A375 cells is over 1000 nM.

As for `COc1cc2c(Oc3cccc(NC(=O)Nc4ccc(OC)c(C(F)(F)F)c4)c3)ncnc2cc1OCCN1CCOCC1` [Ex 250, 1-(4-methoxy-3-(trifluoromethyl)phenyl)-3-(3-(6-methoxy-7-(2-morpholinoethoxy)quinazolin-4-yloxy)phenyl)urea], the Kd on RAF kinases [1], at RAF kinases [2] and on RAF kinases [3] was under 250 nM throughout. The half-inhibitory concentration (IC50) in assay [4] is 250 to 500 nM. The EC50 with A375 cells is over 1000 nM.

`COc1cc2ncnc([S+]([O-])c3cccc(NC(=O)Nc4cc(C(C)(C)C)on4)c3)c2cc1OC` (stereo not drawn) [Ex 253, 1-(5-tert-butylisoxazol-3-yl)-3-(3-(6,7-dimethoxyquinazolin-4-ylsulfinyl)phenyl)urea]: the dissociation constant (Kd) at RAF kinases [1], on RAF kinases [2] and on RAF kinases [3] was over 1000 nM each time. The IC50 in assay [4] lay within 500 to 1000 nM. In addition, in the assay on A375 cells, the EC50 was over 1000 nM.

As to `COc1cc2c(Oc3cccc(NC(=O)Nc4cc(C(C)(C)C)on4)c3)ncnc2cc1OCCCN1CCS(=O)(=O)CC1` [Ex 256, 1-(5-tert-butyl-isoxazol-3-yl)-3-(3-{7-[3-(1,1-dioxo-thiomorpholin-4-yl)-propoxy]-6-methoxy-quinazolin-4-yloxy}-phenyl)-urea], the Kd on RAF kinases [1], at RAF kinases [2] and on RAF kinases [3] was under 250 nM in each case. The IC50 in assay [4] is under 250 nM. In the assay on A375 cells, the EC50 was under 250 nM.

Regarding `COc1cc2c(Oc3cccc(NC(=O)Nc4cc(C(C)(C)F)no4)c3)ncnc2cc1O` [Ex 257, 1-(3-(2-fluoropropan-2-yl)isoxazol-5-yl)-3-(3-(7-hydroxy-6-methoxyquinazolin-4-yloxy)phenyl)urea], the Kd at RAF kinases [1], on RAF kinases [2] and on RAF kinases [3] was under 250 nM throughout. Besides, the IC50 in assay [4] fell in the range of 250 to 500 nM. Further, the EC50 in the assay on A375 cells was 500 to 1000 nM.

Regarding `COc1cc2ncnc(Oc3cccc(NC(=O)Nc4cc(C(C)(C)F)no4)c3)c2cc1O` [Ex 258, 1-(3-(2-fluoropropan-2-yl)isoxazol-5-yl)-3-(3-(6-hydroxy-7-methoxyquinazolin-4-yloxy)phenyl)urea], the Kd at RAF kinases [1], at RAF kinases [2] and on RAF kinases [3] was under 250 nM in each case. In addition, the IC50 in assay [4] was under 250 nM. Moreover, the EC50 with A375 cells was 250 to 500 nM.

Take `CCOc1cc2c(Oc3cccc(NC(=O)Nc4cc(C(C)(C)C(F)(F)F)on4)c3)ncnc2cc1OC` [Ex 260, 1-(3-(6-ethoxy-7-methoxyquinazolin-4-yloxy)phenyl)-3-(5-(1,1,1-trifluoro-2-methylpropan-2-yl)isoxazol-3-yl)urea]: the Kd at RAF kinases [1], on RAF kinases [2] and at RAF kinases [3] was under 250 nM in each case. The IC50 in assay [4] is under 250 nM. The EC50 in the assay on A375 cells is under 250 nM.

As to `CCOc1cc2c(Sc3cccc(NC(=O)Nc4cc(C(C)(C)C(F)(F)F)on4)c3)ncnc2cc1OC` [Ex 262, 1-(3-(6-ethoxy-7-methoxyquinazolin-4-ylthio)phenyl)-3-(5-(1,1,1-trifluoro-2-methylpropan-2-yl)isoxazol-3-yl)urea], the Kd on RAF kinases [1], on RAF kinases [2] and at RAF kinases [3] was under 250 nM in each case. Also, the IC50 in assay [4] was under 250 nM. Besides, in the assay with A375 cells, the EC50 was over 1000 nM.

Consider `COc1cc2c(Oc3cccc(NC(=O)Nc4cc(C(C)(C)C(F)(F)F)on4)c3)ncnc2cc1O` [Ex 263, 1-(3-(7-hydroxy-6-methoxyquinazolin-4-yloxy)phenyl)-3-(5-(1,1,1-trifluoro-2-methylpropan-2-yl)isoxazol-3-yl)urea], for which the Kd on RAF kinases [1], on RAF kinases [2] and at RAF kinases [3] was under 250 nM in each case. The IC50 in assay [4] was under 250 nM. Further, the EC50 in the assay with A375 cells was in the range of 500 to 1000 nM.

On to `COc1cc2ncnc(Oc3cccc(NC(=O)Nc4cc(C(C)(C)C(F)(F)F)on4)c3)c2cc1O` [Ex 264, 1-(3-(6-hydroxy-7-methoxyquinazolin-4-yloxy)phenyl)-3-(5-(1,1,1-trifluoro-2-methylpropan-2-yl)isoxazol-3-yl)urea], for which the Kd on RAF kinases [1], on RAF kinases [2] and at RAF kinases [3] was under 250 nM throughout. The IC50 in assay [4] is under 250 nM. For the same compound, the EC50 with A375 cells was under 250 nM.
